From patent US12527849B2, “Apparatus for determining administration form of a composition of an engineered virus-based nanoparticle for a treatment of an autoimmune condition” (Diamante Srl, priority 2021, dated 2026)

Key:
[1] = tested on: CD25+ Foxp3+ cells; experiment: Percentage of CD25+ Foxp3+ cells in lymph nodes of CIA mice; assay type: in vivo; settings: day 60 after immunization, i.p. treatment, mean (SEM), n=3
Text: With continued reference to FIG. 1, in some embodiments, administration 116 may be done to an animal. As a non-limiting example, the animal may include a mouse, a fish, a rabbit, human, and the like. As a non-limiting example, administration 116 of composition of the engineered virus-based nanoparticle for a treatment of an autoimmune condition may be done to dilute, brown, and non-agouti (DBA) mice based on their susceptibility to collagen-induced arthritis (CIA). Female DBA/1 mice 6 to 8 weeks of age may be maintained under specific pathogen-free conditions. CIA may be induced by the intradermal tail base injection of 100 μg of chicken type II collagen (Sigma-Aldrich) as previously described. […] CIA may be assessed using a macroscopic score system based on the visual identification of arthritic limbs. The clinical severity of arthritis may be evaluated as follows: Each mouse may be inspected every 2 to 3 days for three different parameters: (i) swelling of the hind ankle and foot, measured with calipers; (ii) erythema of each leg; and (iii) swelling of the fingers. The RA index for each mouse was expressed as the mean of the three scores from the individual parameters. At the end of the experiment (60 days), we determined the proportion of CD25+Foxp3+ cells in the lymph nodes and measured cytokine titers in the lymph nodes, joints, and serum. […]

[2] = tested on: MCP-1; experiment: Pro-inflammatory cytokines in sera of CIA Collagen mice (ELISA, day 58): MCP-1; assay type: in vivo; settings: Dexamethasone oral 1 mg/kg, 20 times between day 28 and 57
Protocol: Critical administration 124 disclosed herein is further described below. Q5D represents administration 5 days a part. TBSV·pLIp1 and wt TBSV shown in Table 1 may include liquid form that are not sterile and stored in −20° C. TBSV·pLIp1 may be given at the dose of 50 μG/100 μL Male DBA/1J mice (8 weeks; Envigo, Italy) may be used for these studies. Mice may be housed in individual cages (two for each group) and maintained under a 12:12 light-dark cycle at 21° C.±1° C. and 50%±5% humidity. The animals may be acclimated to their environment for 1 week and had ad libitum access to tap water and standard rodent diet. All animal experiments may be complied with regulations in Italy (D.M. 116192), Europe (O.J of E.C. L 358/112/18/1986), and the United States (Animal Welfare Assurance Number A5594-01, Department of Health and Human Services, USA). […] Arthritis was assessed by using qualitative severity score system and hind paw volume (mL) measured by a plethysmometer on day 20, 22, 24, 26, 28, 30, 32, 34, 36, 38, 40, 42, 44, 46 48, 50, 52, 54, 56 and 58. Body weight was recorded on day 0, 6, 13, 16, 18, 20, 22, 24, 26, 28, 30, 32, 34, 36, 38, 40, 42, 44, 46, 50, 52, 54, 56 and 58. […]

## C[C@@H]1C[C@H]2[C@@H]3CCC4=CC(=O)C=C[C@]4(C)[C@@]3(F)[C@@H](O)C[C@]2(C)[C@@]1(O)C(=O)CO [Dexamethasone, dexamethasone]
[1]
  % CD25^+/Foxp3^+: 3.26 (0.84) %
[2]
  MCP-1, % of reduction vs CIA Collagen: 30.57%
